Data as given in ChEMBL document CHEMBL1201862, “PubChem BioAssay data set” (2004).
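Test compounds were applied to cells in 96-well plates for 48 hours at 5 doses. GI50 = concentration required for 50% inhibition of growth.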 Active and inactive are the calls of the source. No stated cut-off is given here; in the data, active = GI50 up to about 1.1 µM and inactive = higher.

Experiments:
Assay in all cases: DTP human tumour cell line panel, 48 h
A549 = tested on: A549
HCT-116 = tested on: HCT-116
A498 = tested on: A498
U-251 = tested on: U-251
SF-295 = tested on: SF-295
RXF 393 = tested on: RXF 393
SF-268 = tested on: SF-268
SK-MEL-28 = tested on: SK-MEL-28
SNB-19 = tested on: SNB-19
SK-MEL-2 = tested on: SK-MEL-2
SK-OV-3 = tested on: SK-OV-3
HT-29 = tested on: HT-29
OVCAR-8 = tested on: OVCAR-8
UACC-257 = tested on: UACC-257
HCT-15 = tested on: HCT-15
SN12C = tested on: SN12C
MDA-N = tested on: MDA-N
BT-549 = tested on: BT-549
MCF7 = tested on: MCF7

SMILES	GI50 (A549)	GI50 (HCT-116)	GI50 (A498)	GI50 (U-251)	GI50 (SF-295)	GI50 (RXF 393)	GI50 (SF-268)	GI50 (SK-MEL-28)	GI50 (SNB-19)	GI50 (SK-MEL-2)	GI50 (SK-OV-3)	GI50 (HT-29)	GI50 (OVCAR-8)	GI50 (UACC-257)	GI50 (HCT-15) [µM]	GI50 (SN12C)	GI50 (MDA-N)	GI50 (BT-549)	GI50 (MCF7)
CC(C)[Si](OCC1CC(C[C@H]2CC(C[C@H]3C[C@@H](CO[Si](C(C)C)(C(C)C)C(C)C)OC(C)(C)O3)OC(C)(C)O2)OC(C)(C)O1)(C(C)C)C(C)C (some centres not stated)	> 100 µM (inactive)	> 100 µM (inactive)	> 100 µM (inactive)	> 100 µM (inactive)	> 100 µM (inactive)	> 100 µM (inactive)	> 100 µM (inactive)	> 100 µM (inactive)	> 100 µM (inactive)	> 100 µM (inactive)	> 100 µM (inactive)	> 100 µM (inactive)	> 100 µM (inactive)	> 100 µM (inactive)	–	–	–	–	–
NC(=S)NNc1c([N+](=O)[O-])cnn(-c2ccccc2)c1=O	23 µM (inactive)	10.2 µM (inactive)	–	16.9 µM (inactive)	15.1 µM (inactive)	18.5 µM (inactive)	21.1 µM (inactive)	17 µM (inactive)	19 µM (inactive)	–	21.6 µM (inactive)	18 µM (inactive)	14.5 µM (inactive)	22.9 µM (inactive)	17.3	17.1 µM (inactive)	–	–	–
C[n+]1cccc(NC(=O)c2ccc(NC(=O)C34CCC(C(=O)Nc5ccc(C(=O)Nc6ccc[n+](C)c6)cc5)(CC3)CC4)cc2)c1	22.5 µM (inactive)	33.5 µM (inactive)	18 µM (inactive)	27.9 µM (inactive)	19.7 µM (inactive)	22.1 µM (inactive)	16.4 µM (inactive)	42.2 µM (inactive)	24.9 µM (inactive)	–	–	45.9 µM (inactive)	42.7 µM (inactive)	15.7 µM (inactive)	58.2	3.23 µM (inactive)	–	–	–
COCC(O)CN1C(N)=NC(O)C1O (configuration not stated)	> 100 µM (inactive)	–	–	> 100 µM (inactive)	> 100 µM (inactive)	> 100 µM (inactive)	> 100 µM (inactive)	> 100 µM (inactive)	> 100 µM (inactive)	> 100 µM (inactive)	–	> 100 µM (inactive)	> 100 µM (inactive)	> 100 µM (inactive)	–	> 100 µM (inactive)	–	–	–
O=C(O)c1ccc(Nc2nc3cc(C(F)(F)F)ccc3nc2-c2ccccc2)cc1	16.3 µM (inactive)	22.8 µM (inactive)	–	14.9 µM (inactive)	13.4 µM (inactive)	24 µM (inactive)	48.8 µM (inactive)	28.6 µM (inactive)	30.6 µM (inactive)	–	–	14.1 µM (inactive)	27.9 µM (inactive)	35.3 µM (inactive)	12.9	26 µM (inactive)	30.6 µM (inactive)	62.5 µM (inactive)	> 10 µM (inactive)
O=C1CSC2=NC3=C(CSC/C3=C\c3ccccc3)C(c3ccccc3)N12 (configuration not stated)	50.6 µM (inactive)	50.2 µM (inactive)	–	39.8 µM (inactive)	> 100 µM (inactive)	–	> 100 µM (inactive)	> 100 µM (inactive)	–	> 100 µM (inactive)	> 100 µM (inactive)	95.5 µM (inactive)	86.5 µM (inactive)	> 100 µM (inactive)	> 100	92.9 µM (inactive)	32.6 µM (inactive)	–	33.3 µM (inactive)
c1cc(-c2ccc(-c3ccsc3)s2)cs1	22.4 µM (inactive)	> 100 µM (inactive)	46.6 µM (inactive)	19.5 µM (inactive)	54 µM (inactive)	73.1 µM (inactive)	> 100 µM (inactive)	–	–	–	> 100 µM (inactive)	39.5 µM (inactive)	48.8 µM (inactive)	> 100 µM (inactive)	> 100	> 100 µM (inactive)	> 100 µM (inactive)	–	50.5 µM (inactive)
O=C1CCCCC/C1=C\c1ccccc1	> 100 µM (inactive)	> 100 µM (inactive)	> 100 µM (inactive)	> 100 µM (inactive)	> 100 µM (inactive)	–	> 100 µM (inactive)	> 100 µM (inactive)	> 100 µM (inactive)	> 100 µM (inactive)	> 100 µM (inactive)	> 100 µM (inactive)	–	> 100 µM (inactive)	> 100	> 100 µM (inactive)	> 100 µM (inactive)	> 100 µM (inactive)	–
CC(C)(C)C1CCP(=O)(c2ccccc2)CC1 (configuration not stated)	> 100 µM (inactive)	> 100 µM (inactive)	> 100 µM (inactive)	> 100 µM (inactive)	> 100 µM (inactive)	> 100 µM (inactive)	–	> 100 µM (inactive)	> 100 µM (inactive)	> 100 µM (inactive)	> 100 µM (inactive)	> 100 µM (inactive)	> 100 µM (inactive)	> 100 µM (inactive)	> 100	> 100 µM (inactive)	–	–	–
C[N+](C)(C)CC(=O)N/N=C(/CC(=O)CC(C1=C(O)c2ccccc2OC1)c1ccccc1)C(=O)Nc1cccc(Cl)c1 (configuration not stated)	> 100 µM (inactive)	> 100 µM (inactive)	> 100 µM (inactive)	> 100 µM (inactive)	> 100 µM (inactive)	> 100 µM (inactive)	> 100 µM (inactive)	> 100 µM (inactive)	–	> 100 µM (inactive)	> 100 µM (inactive)	> 100 µM (inactive)	> 100 µM (inactive)	> 100 µM (inactive)	> 100	> 100 µM (inactive)	–	> 100 µM (inactive)	> 100 µM (inactive)
O=[N+]([O-])/C(C(Cl)=C(Cl)Cl)=C(/Cl)SCc1ccccc1	16.3 µM (inactive)	1.82 µM (inactive)	24.3 µM (inactive)	8.04 µM (inactive)	34.4 µM (inactive)	3.01 µM (inactive)	12.4 µM (inactive)	5.65 µM (inactive)	22.5 µM (inactive)	22.1 µM (inactive)	21.2 µM (inactive)	11.5 µM (inactive)	1.34 µM (inactive)	3.39 µM (inactive)	5	3.61 µM (inactive)	1.84 µM (inactive)	–	0.495 µM (active)
C[C@H]1S[C@H](c2c(F)cccc2F)n2c1nc1ccccc12	47.1 µM (inactive)	34.6 µM (inactive)	–	54.5 µM (inactive)	39.1 µM (inactive)	28.6 µM (inactive)	60.5 µM (inactive)	71.3 µM (inactive)	> 100 µM (inactive)	15.1 µM (inactive)	38.4 µM (inactive)	47.3 µM (inactive)	69 µM (inactive)	50.2 µM (inactive)	47	74.1 µM (inactive)	59.2 µM (inactive)	52.8 µM (inactive)	33.8 µM (inactive)
N#Cc1nc(CCc2nc(C#N)c(N)o2)oc1N	> 10 µM (inactive)	> 10 µM (inactive)	–	–	> 10 µM (inactive)	> 10 µM (inactive)	> 10 µM (inactive)	> 10 µM (inactive)	> 10 µM (inactive)	–	> 10 µM (inactive)	> 10 µM (inactive)	> 10 µM (inactive)	> 10 µM (inactive)	> 10	> 10 µM (inactive)	> 10 µM (inactive)	> 10 µM (inactive)	> 10 µM (inactive)
COc1ccc2c(c1)CN1C(=N2)CSC1c1ccccc1Cl (configuration not stated)	25.7 µM (inactive)	17.5 µM (inactive)	–	21.5 µM (inactive)	24.7 µM (inactive)	14.4 µM (inactive)	24 µM (inactive)	11.1 µM (inactive)	28.6 µM (inactive)	17.7 µM (inactive)	24.3 µM (inactive)	17.4 µM (inactive)	16.7 µM (inactive)	13.4 µM (inactive)	11.7	19.1 µM (inactive)	17.1 µM (inactive)	25.2 µM (inactive)	25.9 µM (inactive)
CC1(C)CC(C)(C)C1=NNC(N)=O	> 100 µM (inactive)	> 100 µM (inactive)	> 100 µM (inactive)	> 100 µM (inactive)	> 100 µM (inactive)	> 100 µM (inactive)	> 100 µM (inactive)	> 100 µM (inactive)	> 100 µM (inactive)	> 100 µM (inactive)	> 100 µM (inactive)	> 100 µM (inactive)	> 100 µM (inactive)	> 100 µM (inactive)	> 100	> 100 µM (inactive)	> 100 µM (inactive)	–	> 100 µM (inactive)
COc1ccc(C[C@H]2NC(=O)/C=C/C[C@@H]([C@H](C)[C@H]3O[C@@H]3c3ccccc3)OC(=O)[C@H](CC(C)C)OC(=O)[C@H](C)CNC2=O)cc1	3.16e-05 µM (active)	1.57e-05 µM (active)	2.15e-05 µM (active)	2.86e-05 µM (active)	1.07e-05 µM (active)	9.27e-06 µM (active)	7.13e-05 µM (active)	4.83e-05 µM (active)	2.47e-05 µM (active)	> 4.42e-05 µM (active)	2.06e-05 µM (active)	8.18e-06 µM (active)	1.69e-05 µM (active)	> 5.89e-05 µM (active)	4.28e-05	3.94e-05 µM (active)	5.31e-06 µM (active)	–	> 8.95e-05 µM (active)
CC(O)CNC(=O)Nc1c(C(F)(F)F)cc(-c2ccccc2)[nH]c1=O (configuration not stated)	> 100 µM (inactive)	> 100 µM (inactive)	> 100 µM (inactive)	> 100 µM (inactive)	> 100 µM (inactive)	> 100 µM (inactive)	> 100 µM (inactive)	> 100 µM (inactive)	> 100 µM (inactive)	> 100 µM (inactive)	> 100 µM (inactive)	> 100 µM (inactive)	> 100 µM (inactive)	> 100 µM (inactive)	> 100	> 100 µM (inactive)	–	> 100 µM (inactive)	> 100 µM (inactive)
